Where two headings read alike, the source gives them in different places.

For orientation: EC50 means the concentration needed to bring the measured effect to its halfway point.

The subject of this test is Dengue-2 (Strain New Guinea C). In words: Viral yield assay against Dengue-2 in Vero cells. It counts as cell-based, Dengue virus. To be noted: Dengue virus, read-out: Activity (EC50 class) against Dengue-2 Virus in Vero cells. In short, it runs like this: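 Yield reduction, Vero; MOI 0.1; compound vs DMSO; 37° C; harvest 48 h p.i.; titer on Vero; EC50 fitted. Other serotypes run the same way.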

Where [1] appears, read: Vero cells, MOI 0.1, harvested 48 hours post infection.

For `Nc1c(C(=O)Nc2ccc([N+](=O)[O-])cc2)sc2nc(-c3cccs3)cc(C(F)(F)F)c12` [Compound 221, 3-Amino-6-thiophen-2-yl-4-trifluoromethyl-thieno[2,3-b]pyridine-2-carboxylic acid (4-nitro-phenyl)-amide], the EC50 under setting [1] is greater than 25 µM.

For `CC1(C)CC(=O)c2cc3c(N)c(C(=O)Nc4ccccc4[N+](=O)[O-])sc3nc2C1` [Compound 222, 3-Amino-7,7-dimethyl-5-oxo-5,6,7,8-tetrahydro-thieno[2,3-b]quinoline-2-carboxylic acid (2-nitro-phenyl)-amide], the EC50 under setting [1] is greater than 25 µM. With `Nc1c(C(=O)Nc2nccs2)sc2nc3c(c(-c4cccs4)c12)CCCCC3` [Compound 223, 3-Amino-4-thiophen-2-yl-6,7,8,9-tetrahydro-5H-1-thia-10-aza-cyclohepta[f]indene-2-carboxylic acid thiazol-2-ylamide], the half-maximal effective concentration (EC50) (Vero, 48 h) was greater than 25 µM. For `NC(=O)c1sc2nc3c(c(-c4ccc(Cl)cc4)c2c1N)CCCC3` [Compound 224, 3-Amino-4-(4-chloro-phenyl)-5,6,7,8-tetrahydro-thieno[2,3-b]quinoline-2-carboxylic acid amide], the EC50 (Vero, 48 h) was greater than 25 µM. Turning to `C=CCc1c(C)nc2sc(C(=O)Nc3ccc([N+](=O)[O-])cc3)c(N)c2c1C` [Compound 225, 5-Allyl-3-amino-4,6-dimethyl-thieno[2,3-b]pyridine-2-carboxylic acid (4-nitro-phenyl)-amide], the concentration for a half-maximal effect (EC50) under setting [1] was greater than 25 µM. The same measure, in the same setting: in the case of `CC1(C)CC(=O)c2cc3c(N)c(C(=O)Nc4ccc5c(c4)OCO5)sc3nc2C1` [Compound 226, 3-Amino-7,7-dimethyl-5-oxo-5,6,7,8-tetrahydro-thieno[2,3-b]quinoline-2-carboxylic acid benzo[1,3]dioxol-5-ylamide] it was greater than 25 µM. Consider `Cc1ccc(-c2c3c(nc4sc(C(N)=O)c(N)c24)CCCC3)cc1` [Compound 227, 3-Amino-4-p-tolyl-5,6,7,8-tetrahydro-thieno[2,3-b]quinoline-2-carboxylic acid amide], for which, under setting [1], the 50% effective concentration (EC50) was greater than 25 µM. On to `Nc1c(C(=O)Nc2ccc([N+](=O)[O-])cc2)sc2nc3c(cc12)CCCC3` [Compound 228, 3-Amino-5,6,7,8-tetrahydro-thieno[2,3-b]quinoline-2-carboxylic acid (4-nitro-phenyl)-amide], for which, under setting [1], the EC50 was greater than 25 µM. As to `COCc1cc(C)nc2sc(C(=O)Nc3ccc(C)c(Cl)c3)c(N)c12` [Compound 229, 3-Amino-4-methoxymethyl-6-methyl-thieno[2,3-b]pyridine-2-carboxylic acid (3-chloro-4-methyl-phenyl)-amide], the EC50 under setting [1] is greater than 25 µM. Regarding `Cc1nc2c(sc3nc4c(cc32)COC(C)(C)C4)c(=O)n1CCc1ccccc1` [Compound 230, 3,8,8-Trimethyl-2-phenethyl-8,9-dihydro-2H,6H-7-oxa-11-thia-2,4,10-triaza-benzo[b]fluoren-1-one], the EC50 (Vero, 48 h) was greater than 25 µM. `Cc1nc2c(sc3nc4c(cc32)COC(C)(C)C4)c(=O)n1CCN1CCOCC1` [Compound 231, 3,8,8-Trimethyl-2-(2-morpholin-4-yl-ethyl)-8,9-dihydro-2H,6H-7-oxa-11-thia-2,4,10-triaza-benzo[b]fluoren-1-one]: the EC50 (Vero, 48 h) was greater than 25 µM. In the case of `CC1(C)Cc2nc3sc4c(=O)[nH]cnc4c3cc2CS1` [Compound 232, 8,8-Dimethyl-8,9-dihydro-2H,6H-7,11-dithia-2,4,10-triaza-benzo[b]fluoren-1-one], the EC50 (Vero, 48 h) was greater than 25 µM. With `CC1(C)Cc2c(c(N3CCOCC3)nc3sc4c(=O)n(-c5ccccc5)cnc4c23)CO1` [Compound 233, 2,2-Dimethyl-5-morpholin-4-yl-9-phenyl-1,4-dihydro-2H,9H-3-oxa-7-thia-6,9,11-triaza-benzo[c]fluoren-8-one], under setting [1], the EC50 was greater than 25 µM. Take `CC1(C)Cc2c(c(N3CCOCC3)nc3sc(C(=O)N4CCOCC4)c(N)c23)CO1` [Compound 234, (1-Amino-8,8-dimethyl-5-morpholin-4-yl-8,9-dihydro-6H-7-oxa-3-thia-4-aza-cyclopenta[a]naphthalen-2-yl)-morpholin-4-yl-methanone]: under setting [1], the EC50 is greater than 25 µM. As for `CCc1nc2c(sc3nc4c(cc32)COC(C)(C)C4)c(=O)n1Cc1ccco1` [Compound 235, 3-Ethyl-2-furan-2-ylmethyl-8,8-dimethyl-8,9-dihydro-2H,6H-7-oxa-11-thia-2,4,10-triaza-benzo[b]fluoren-1-one], for the setting “Vero, 48 h”, the EC50 was greater than 25 µM. On to `Cc1nc2c(sc3nc4c(cc32)COC(C)(C)C4)c(=O)n1CC1CCCO1` (stereo not drawn) [Compound 236, 3,8,8-Trimethyl-2-(tetrahydro-furan-2-ylmethyl)-8,9-dihydro-2H,6H-7-oxa-11-thia-2,4,10-triaza-benzo[b]fluoren-1-one], for which the EC50 under setting [1] is greater than 25 µM. Take `CCCCNC(=O)c1sc2nc3c(cc2c1NC(C)=O)COC(C)(C)C3` [Compound 237, 3-Acetylamino-7,7-dimethyl-7,8-dihydro-5H-pyrano[4,3-b]thieno[3,2-e]pyridine-2-carboxylic acid butylamide]: the concentration for a half-maximal effect (EC50) under setting [1] is greater than 25 µM. Still for that read-out and setting: in the case of `COc1ccc(-c2cc(-c3cccs3)nc3sc(C(N)=O)c(N)c23)cc1` [Compound 238, 3-Amino-4-(4-methoxy-phenyl)-6-thiophen-2-yl-thieno[2,3-b]pyridine-2-carboxylic acid amide] it was greater than 25 µM.

As for `COCc1cc(C)nc2sc(C(=O)Nc3ccc(C(=O)OC)cc3)c(N)c12` [Compound 239, 4-[(3-Amino-4-methoxymethyl-6-methyl-thieno[2,3-b]pyridine-2-carbonyl)-amino]-benzoic acid methyl ester], the EC50 (Vero, 48 h) is greater than 25 µM. As to `CCOC(=O)c1cc(NC(=O)c2sc3nc(C)cc(COC)c3c2N)ccc1Cl` [Compound 240, 5-[(3-Amino-4-methoxymethyl-6-methyl-thieno[2,3-b]pyridine-2-carbonyl)-amino]-2-chloro-benzoic acid ethyl ester], the half-maximal effective concentration (EC50) under setting [1] was greater than 25 µM. Still for that read-out and setting: then `CCOc1ccc(-c2c3c(nc4sc(C(=O)Nc5nccs5)c(N)c24)CCCC3)cc1` [Compound 241, 3-Amino-4-(4-ethoxy-phenyl)-5,6,7,8-tetrahydro-thieno[2,3-b]quinoline-2-carboxylic acid thiazol-2-ylamide], with greater than 25 µM; and `COCc1cc(C)nc2sc(C(=O)Nc3cc(C)ccc3F)c(N)c12` [Compound 242, 3-Amino-4-methoxymethyl-6-methyl-thieno[2,3-b]pyridine-2-carboxylic acid (2-fluoro-5-methyl-phenyl)-amide], with greater than 25 µM. In the case of `COCc1cc(C)nc2sc(C(=O)Nc3ccc(N4CCOCC4)cc3)c(N)c12` [Compound 243, 3-Amino-4-methoxymethyl-6-methyl-thieno[2,3-b]pyridine-2-carboxylic acid (4-morpholin-4-yl-phenyl)-amide], the EC50 under setting [1] is greater than 25 µM. For the molecule `COc1ccc(NC(=O)c2sc3nc(N4CCOCC4)c4c(c3c2N)CC(C)(C)OC4)cc1` [Compound 244, 1-Amino-8,8-dimethyl-5-morpholin-4-yl-8,9-dihydro-6H-7-oxa-3-thia-4-aza-cyclopenta[a]naphthalene-2-carboxylic acid (4-methoxy-phenyl)-amide], under “Vero, 48 h”, the EC50 was greater than 25 µM. With `CC1(C)Cc2c(c(N3CCOCC3)nc3sc4c(=O)n(-c5ccc(Cl)c(Cl)c5)cnc4c23)CO1` [Compound 245, 9-(3,4-Dichloro-phenyl)-2,2-dimethyl-5-morpholin-4-yl-1,4-dihydro-2H,9H-3-oxa-7-thia-6,9,11-triaza-benzo[c]fluoren-8-one], under setting [1], the 50% effective concentration (EC50) was greater than 25 µM.

For the molecule `CCCCN(CCCC)C(=O)c1sc2nc(N3CCOCC3)c3c(c2c1N)CC(C)(C)OC3` [Compound 246, 1-Amino-8,8-dimethyl-5-morpholin-4-yl-8,9-dihydro-6H-7-oxa-3-thia-4-aza-cyclopenta[a]naphthalene-2-carboxylic acid dibutylamide], the EC50 under setting [1] was greater than 25 µM. Take `COc1ccccc1NC(=O)c1sc2nc(N3CCOCC3)c3c(c2c1N)CC(C)(C)OC3` [Compound 247, 1-Amino-8,8-dimethyl-5-morpholin-4-yl-8,9-dihydro-6H-7-oxa-3-thia-4-aza-cyclopenta[a]naphthalene-2-carboxylic acid (2-methoxy-phenyl)-amide]: the EC50 under setting [1] was greater than 25 µM. The same measure, in the same setting: then `CC1(C)Cc2c(c(N3CCOCC3)nc3sc4c(c23)N2C(=O)CCC2(C)NC4=O)CO1` (stereo not drawn) [Compound 248, 2,2,9a-Trimethyl-5-(4-morpholinyl)-1,4,9,9a,10,11-hexahydro-2H-pyrano[4″,3″:4′,5′]pyrido[3′,2′:4, 5]thieno[2,3-e]pyrrolo[1,2-a]pyrimidine-8,12-dione], with greater than 25 µM; and `COCc1cc(C)nc2sc(C(=O)N3CCc4ccccc43)c(N)c12` [Compound 249, (3-Amino-4-methoxymethyl-6-methyl-thieno[2,3-b]pyridin-2-yl)-(2,3-dihydro-indol-1-yl)-methanone], with greater than 25 µM; and `COCc1cc(C)nc2sc(C(=O)Nc3ccc4c(c3)OCO4)c(N)c12` [Compound 250, 3-Amino-4-methoxymethyl-6-methyl-thieno[2,3-b]pyridine-2-carboxylic acid benzo[1,3]dioxol-5-ylamide], with greater than 25 µM.

Consider `CC1(C)Cc2nc3sc4c(=O)n(Cc5ccc(Cl)cc5Cl)cnc4c3cc2CO1` [Compound 252, 2-(2,4-Dichloro-benzyl)-8,8-dimethyl-8,9-dihydro-2H,6H-7-oxa-11-thia-2,4,10-triaza-benzo[b]fluoren-1-one], for which the EC50 under setting [1] is greater than 25 µM.

In the case of `CC1(C)Cc2nc3sc(C(=O)NCCCO)c(N)c3cc2CS1` [Compound 253, 3-Amino-7,7-dimethyl-7,8-dihydro-5H-1,6-dithia-9-aza-cyclopenta[b]naphthalene-2-carboxylic acid (3-hydroxy-propyl)-amide], the concentration for a half-maximal effect (EC50) (Vero, 48 h) was greater than 25 µM. For the molecule `Nc1c(C(=O)Nc2ccccc2C(F)(F)F)sc2nc3c(cc12)CCCC3` [Compound 254, 3-Amino-5,6,7,8-tetrahydro-thieno[2,3-b]quinoline-2-carboxylic acid (2-trifluoromethyl-phenyl)-amide], the EC50 under setting [1] is greater than 25 µM.

The record behind these values is patent US20170121344A1 (Siga Technologies, Inc., priority 2009, published 2017).
